Results from ChEMBL document CHEMBL1126306, “Inactivation of calpain by peptidyl fluoromethyl ketones” (J Med Chem, 1992).
Where a SMILES comes first, the peptide text is derived from it.

Test: The rate of inactivation expressed as second-order rate constant is independent of concentration.
Details: for kinact/KI: read-out: k2

Structure (SMILES)	kinact/KI [M⁻¹ s⁻¹]	k2 [M⁻¹ s⁻¹]
C[C@H](NC(=O)[C@H](Cc1ccc(O)cc1)NC(=O)OCc1ccccc1)C(=O)CF	7.4e+06	
CC(C)C[C@H](NC(=O)OCc1ccccc1)C(=O)N[C@@H](Cc1ccc(O)cc1)C(=O)CF (HELM PEPTIDE1{[O=C(OCc1ccccc1)[*:2]].L.Y.[FC[*:1]]}$$$$V2.0)	17000	12000
